Results from PubChem BioAssay AID1918998 (Molecular Pharmacology Branch, DTP, NCI, 2023).
pIC50: −log10 of the molar value.

System: 521955-158-R2-J5-PDC complex spheroid growth
Test: Anticancer human tumor 521955-158-R2-J5-PDC patient-derived pancreatic carcinoma cell line growth inhibition [AhR]
Settings: for pIC50: curve of first compound; for viability, T/C: stronger effect = lower value
Excerpt: Multicellular complex tumor spheroid response to aryl hydrocarbon receptor antagonists in combination with a variety of drugs and investigational agents in selected tumor cell lines
The current study was undertaken to assess response to aryl hydrocarbon receptor antagonists in combination with standard-of-care drugs and investigational agents in solid tumor complex spheroid models. Complex spheroids include a stromal component modeled by human endothelial cells (HUVEC) and fibroblasts modeled by human mesenchymal stem cells (MSCs). The concentration ranges selected for each drug and investigational agent were based upon clinically achievable concentrations if the clinical Cmax of the agent was known.
Compounds. The drugs and investigational agents: BAY 2416964 (NSC825713), GNF351 (NSC835774), CH-223191 (NSC835775), CPI-455 (NSC825282), aza-TdCyd (NSC777586), decitabine (NSC127716), belinostat (NSC758774), entinostat (NSC756642), pevonedistat (NSC761192), tazemetostat (NSC777109), talazoparib (NSC765396), olaparib (NSC753686), selinexor (NSC780203), nedisertib (M3814, NSC802822), bortezomib (NSC756655), venetoclax (NSC766270), doxorubicin (NSC123127), elimusertib (BAY189344, NSC800525), ceralasertib (AZD6738, NSC777638), TAK-243 (NSC785004), alisertib (NSC759677), etoposide (NSC141540), topotecan (NSC609699), eribulin (NSC707389), gemcitabine (NSC613327), carboplatin (NSC241240), cisplatin (NSC119875), and SN-38 (NSC673596) were obtained from the National Cancer Institute (NCI) Developmental Therapeutics Program Chemical Repository (32). The FDA-approved anticancer drug set is available from the Developmental Therapeutics Program at https://dtp.cancer.gov/organization/dscb/obtaining/available plates.htm. […] The stock solutions were prepared in dimethyl sulfoxide (DMSO, Sigma-Aldrich, St. Louis, MO, cat. D2650), except for the platinum compounds which were prepared in saline (Quality Biological, Gaithersburg, MD, cat. 114-055-101), at 800-fold the tested concentration and stored at -70 degrees C prior to their use. All drugs and investigational agents were tested over a range starting from a high concentration at or near the clinical Cmax and decreasing in half-log increments. If the clinical Cmax for an agent had not been determined, the highest concentration tested was 10 microM (Table 1).
Cell Culture. All cells were maintained in an incubator at 37 degrees C and 5% CO2 with 95% humidity. The PDC lines were cultured according to standard operating procedures established by the NCI PDMR (https://pdmr.cancer.gov). Briefly, all PDCs were thawed and cultured in Matrigel-coated flasks prepared with a working solution of 1X Ham's F-12 nutrient mix, without supplementation (Invitrogen, Waltham, MA, cat. 11765054), 100 U/mL penicillin-streptomycin (Invitrogen, cat. 15140122), and 2.5% Matrigel (Corning Inc., Corning, NY, cat. 354248) for the first three passages. All PDCs were cultured in complete DMEM/F-12 media containing advanced DMEM/F-12 (Invitrogen, cat. 12634028), 4.9% defined fetal bovine serum, heat inactivated (HyClone Laboratories Inc., Logan, UT, cat. SH30070.03HI), 389 ng/mL hydrocortisone (Sigma-Aldrich, cat. H4001), 9.7 ng/mL human EGF recombinant protein (Invitrogen, cat. PHG0313), 23.4 microg/mL adenine (Sigma-Aldrich, cat. A2786), 97.3 U/mL penicillin-streptomycin (Invitrogen, cat. 15140122), 1.9 mM L-glutamine (Invitrogen, cat. 25030081), and 9.7 microM Y-27632 dihydrochloride (Tocris Bioscience, Bristol, United Kingdom, cat. 1254). The PDCs were cultured in complete DMEM/F12 media without 10 microM Y-27632 dihydrochloride for at least two passages prior to the screen. The established cell lines NCI-H1341 and […] were cultured in DMEM/F-12, HEPES (Invitrogen, cat. 11330032), 5% defined fetal bovine serum (HyClone Laboratories Inc., cat. SH30070.03), ITS premix universal culture supplement [insulin (5 microg/mL), transferrin (5 microg/mL), and selenious acid (5 ng/mL)] […]
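Wherever viability, T/C is given: spheroids mix tumor cells with HUVEC endothelium and human MSC stroma; luminescence taken as viability surrogate after a week of drug exposure.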

Compound: CCc1c2c(nc3ccc(O)cc13)-c1cc3c(c(=O)n1C2)COC(=O)[C@]3(O)CC + CC(CO)NC(=O)c1cc(-c2ccc(Cl)cc2)nn(-c2cnn(C)c2)c1=O
- pIC50 (second compound 0.1 µM): 8.65
- pIC50 (second compound 0.316 µM): > 9.02
- pIC50 (second compound 1 µM): 8.92
- pIC50 (second compound 3.16 µM): > 9.02
- pIC50 (second compound 10 µM): > 9.02
- viability, T/C (second compound 0.1 µM, first compound 0.000949 µM): 57.4%
- viability, T/C (second compound 0.1 µM, first compound 0.003 µM): 47.5%
- viability, T/C (second compound 0.1 µM, first compound 0.00949 µM): 15.7%
- viability, T/C (second compound 0.1 µM, first compound 0.03 µM): 9.8%
- viability, T/C (second compound 0.1 µM, first compound 0.0949 µM): 8.28%
- viability, T/C (second compound 0.1 µM, first compound 0.3 µM): 5.09%
- viability, T/C (second compound 0.316 µM, first compound 0.000949 µM): 49.1%
- viability, T/C (second compound 0.316 µM, first compound 0.003 µM): 36.5%
- viability, T/C (second compound 0.316 µM, first compound 0.00949 µM): 13.5%
- viability, T/C (second compound 0.316 µM, first compound 0.03 µM): 9.73%
- viability, T/C (second compound 0.316 µM, first compound 0.0949 µM): 8.11%
- viability, T/C (second compound 0.316 µM, first compound 0.3 µM): 5.79%
- viability, T/C (second compound 1 µM, first compound 0.000949 µM): 55.3%
- viability, T/C (second compound 1 µM, first compound 0.003 µM): 30%
- viability, T/C (second compound 1 µM, first compound 0.00949 µM): 16.4%
- viability, T/C (second compound 1 µM, first compound 0.03 µM): 7.85%
- viability, T/C (second compound 1 µM, first compound 0.0949 µM): 9.01%
- viability, T/C (second compound 1 µM, first compound 0.3 µM): 4.72%
- viability, T/C (second compound 3.16 µM, first compound 0.000949 µM): 35.5%
- viability, T/C (second compound 3.16 µM, first compound 0.003 µM): 29.3%
- viability, T/C (second compound 3.16 µM, first compound 0.00949 µM): 16.7%
- viability, T/C (second compound 3.16 µM, first compound 0.03 µM): 12.7%
- viability, T/C (second compound 3.16 µM, first compound 0.0949 µM): 9.72%
- viability, T/C (second compound 3.16 µM, first compound 0.3 µM): 9.82%
- viability, T/C (second compound 10 µM, first compound 0.000949 µM): 27.3%
- viability, T/C (second compound 10 µM, first compound 0.003 µM): 23.6%
- viability, T/C (second compound 10 µM, first compound 0.00949 µM): 14.9%
- viability, T/C (second compound 10 µM, first compound 0.03 µM): 8.31%
- viability, T/C (second compound 10 µM, first compound 0.0949 µM): 7.42%
- viability, T/C (second compound 10 µM, first compound 0.3 µM): 6.21%

Compound: O=C(c1cc(Cc2n[nH]c(=O)c3ccccc23)ccc1F)N1CCN(C(=O)C2CC2)CC1 + CC(CO)NC(=O)c1cc(-c2ccc(Cl)cc2)nn(-c2cnn(C)c2)c1=O
- pIC50 (second compound 0.1 µM): < 5.00
- pIC50 (second compound 0.316 µM): < 5.00
- pIC50 (second compound 1 µM): < 5.00
- pIC50 (second compound 3.16 µM): < 5.00
- pIC50 (second compound 10 µM): < 5.00
- viability, T/C (second compound 0.1 µM, first compound 0.0316 µM): 116%
- viability, T/C (second compound 0.1 µM, first compound 0.1 µM): 107%
- viability, T/C (second compound 0.1 µM, first compound 0.316 µM): 116%
- viability, T/C (second compound 0.1 µM, first compound 1 µM): 85.6%
- viability, T/C (second compound 0.1 µM, first compound 3.16 µM): 76.7%
- viability, T/C (second compound 0.1 µM, first compound 10 µM): 75.3%
- viability, T/C (second compound 0.316 µM, first compound 0.0316 µM): 102%
- viability, T/C (second compound 0.316 µM, first compound 0.1 µM): 119%
- viability, T/C (second compound 0.316 µM, first compound 0.316 µM): 93.7%
- viability, T/C (second compound 0.316 µM, first compound 1 µM): 101%
- viability, T/C (second compound 0.316 µM, first compound 3.16 µM): 73.2%
- viability, T/C (second compound 0.316 µM, first compound 10 µM): 71.3%
- viability, T/C (second compound 1 µM, first compound 0.0316 µM): 101%
- viability, T/C (second compound 1 µM, first compound 0.1 µM): 104%
- viability, T/C (second compound 1 µM, first compound 0.316 µM): 110%
- viability, T/C (second compound 1 µM, first compound 1 µM): 88.7%
- viability, T/C (second compound 1 µM, first compound 3.16 µM): 83.7%
- viability, T/C (second compound 1 µM, first compound 10 µM): 72.6%
- viability, T/C (second compound 3.16 µM, first compound 0.0316 µM): 91.9%
- viability, T/C (second compound 3.16 µM, first compound 0.1 µM): 128%
- viability, T/C (second compound 3.16 µM, first compound 0.316 µM): 110%
- viability, T/C (second compound 3.16 µM, first compound 1 µM): 97.7%
- viability, T/C (second compound 3.16 µM, first compound 3.16 µM): 85.4%
- viability, T/C (second compound 3.16 µM, first compound 10 µM): 70.5%
- viability, T/C (second compound 10 µM, first compound 0.0316 µM): 68.5%
- viability, T/C (second compound 10 µM, first compound 0.1 µM): 82.6%
- viability, T/C (second compound 10 µM, first compound 0.316 µM): 87.4%
- viability, T/C (second compound 10 µM, first compound 1 µM): 79.9%
- viability, T/C (second compound 10 µM, first compound 3.16 µM): 70.6%
- viability, T/C (second compound 10 µM, first compound 10 µM): 50.5%
